# Where a name gives a salt, the structure may show the parent alone.
# Biological target: T1, IKZF2 (Homo sapiens, UniProt Q96SW2+Q9UKS7)
# T1 construct: endogenous in cells; host or cells: MOLT4 (CRISPR/Cas9 HiBit knock-in at the IKZF2 locus)
# Assay: MOLT4 IKZF2 HiBit assay
# Type: cell-based
# Conditions: MOLT4 IKZF2 HiBit cells; for DC50: 6 hours incubation, 10-point dose response from 30 μM; for Dmax at 30 µM: MOLT-4, 6 hr (Dmax), read-out: % reduction of IKZF2 @ 30 μM (6 hr)
# Experimental: MOLT4 IKZF2 HiBit Assay Protocol:
# This protocol used MOLT4 cells that were engineered using CRISPR/Cas9-mediated genomic insertion of HiBit, tagged to the N terminus of the IKZF2 coding sequence. Day 1. A 10-point dose response was created starting from 30 μM down to InM using a Tecan D300e. Next was added 8,000 cells/well of the MOLT4 IKZF2 HiBit cells to the compound plate. The compounds plate was incubated for 6 hours. Day 2. Nano-Glo HiBit Lytic Buffer/Nano-Glo HiBit Lytic substrate/LgBit Protein mix was added to each well and the compound plate was incubated for 15 minutes. Finally, luminescence signal was read using a BMG Labtech PHERAstar FSX. Data was normalized to DMSO and graphed using GraphPad Prism to determine the concentration points at which 50% of HiBiT-Helios degradation was achieved by each compound. The extent of degradation (range of luminescence) from the highest to lowest concentration points was calculated to determine Dmax.
# T1 sequence (Q9UKS7 whole entry): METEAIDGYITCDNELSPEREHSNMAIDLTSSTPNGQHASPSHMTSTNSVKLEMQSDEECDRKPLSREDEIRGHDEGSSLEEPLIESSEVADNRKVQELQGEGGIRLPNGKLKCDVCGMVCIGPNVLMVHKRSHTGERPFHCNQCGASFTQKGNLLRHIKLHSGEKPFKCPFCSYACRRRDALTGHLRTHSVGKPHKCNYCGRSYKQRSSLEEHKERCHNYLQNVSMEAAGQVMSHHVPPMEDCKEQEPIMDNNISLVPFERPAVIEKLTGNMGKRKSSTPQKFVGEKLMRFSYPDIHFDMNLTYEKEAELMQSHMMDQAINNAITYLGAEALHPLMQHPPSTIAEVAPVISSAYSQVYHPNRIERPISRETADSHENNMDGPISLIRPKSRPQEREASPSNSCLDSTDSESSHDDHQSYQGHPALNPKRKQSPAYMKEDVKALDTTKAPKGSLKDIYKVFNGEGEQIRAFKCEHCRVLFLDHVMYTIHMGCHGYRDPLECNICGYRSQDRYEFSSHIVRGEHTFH
# T1 sequence (Q96SW2 whole entry): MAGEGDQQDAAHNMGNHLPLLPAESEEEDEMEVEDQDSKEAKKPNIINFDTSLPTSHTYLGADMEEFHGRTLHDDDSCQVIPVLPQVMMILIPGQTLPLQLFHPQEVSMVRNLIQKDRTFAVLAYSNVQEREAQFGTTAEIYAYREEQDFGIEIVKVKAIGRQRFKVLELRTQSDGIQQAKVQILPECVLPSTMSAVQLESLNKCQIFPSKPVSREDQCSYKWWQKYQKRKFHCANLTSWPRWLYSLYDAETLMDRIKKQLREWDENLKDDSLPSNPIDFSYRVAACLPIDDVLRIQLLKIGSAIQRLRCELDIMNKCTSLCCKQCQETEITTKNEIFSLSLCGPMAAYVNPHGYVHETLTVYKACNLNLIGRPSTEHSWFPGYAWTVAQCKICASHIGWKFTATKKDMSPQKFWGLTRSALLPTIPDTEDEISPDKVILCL
# T1 sequence (Q16531 whole entry partner): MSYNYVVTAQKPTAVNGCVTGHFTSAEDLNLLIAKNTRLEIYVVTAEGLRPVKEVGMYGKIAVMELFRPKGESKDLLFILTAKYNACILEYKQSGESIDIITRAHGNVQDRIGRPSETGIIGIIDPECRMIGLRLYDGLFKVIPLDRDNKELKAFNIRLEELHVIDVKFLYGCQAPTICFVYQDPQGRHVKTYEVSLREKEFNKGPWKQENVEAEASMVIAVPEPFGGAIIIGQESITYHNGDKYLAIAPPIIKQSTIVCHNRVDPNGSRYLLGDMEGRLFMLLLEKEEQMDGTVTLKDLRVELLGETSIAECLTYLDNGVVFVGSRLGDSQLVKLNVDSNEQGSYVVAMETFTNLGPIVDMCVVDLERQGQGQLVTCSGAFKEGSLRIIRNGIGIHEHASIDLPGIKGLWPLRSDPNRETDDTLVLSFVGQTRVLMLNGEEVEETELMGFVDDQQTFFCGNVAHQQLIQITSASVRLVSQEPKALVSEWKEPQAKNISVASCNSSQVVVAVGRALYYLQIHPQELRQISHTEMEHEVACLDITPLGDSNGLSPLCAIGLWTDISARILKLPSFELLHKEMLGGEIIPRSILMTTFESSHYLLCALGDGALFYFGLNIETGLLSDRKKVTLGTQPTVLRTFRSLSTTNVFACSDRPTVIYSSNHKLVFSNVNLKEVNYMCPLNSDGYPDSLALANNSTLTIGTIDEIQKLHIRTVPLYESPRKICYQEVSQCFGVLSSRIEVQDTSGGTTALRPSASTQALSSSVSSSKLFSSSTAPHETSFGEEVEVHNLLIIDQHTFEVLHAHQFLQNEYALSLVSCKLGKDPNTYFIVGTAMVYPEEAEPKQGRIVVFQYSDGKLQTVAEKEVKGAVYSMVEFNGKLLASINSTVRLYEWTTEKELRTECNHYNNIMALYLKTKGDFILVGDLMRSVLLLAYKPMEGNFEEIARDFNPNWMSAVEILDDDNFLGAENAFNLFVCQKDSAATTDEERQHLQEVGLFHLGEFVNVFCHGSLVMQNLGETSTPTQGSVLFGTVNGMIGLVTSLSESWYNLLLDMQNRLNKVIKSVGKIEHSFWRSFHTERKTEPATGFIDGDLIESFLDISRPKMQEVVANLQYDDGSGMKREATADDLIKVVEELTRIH
Compound,DC50 [nM],Dmax at 30 µM [%]
"O=C1CCC(N2C(=O)c3ccc(C4(O)CCN(C(CF)c5ccccc5)CC4)cc3C2=O)C(=O)N1 (stereo not drawn) [Compound 34, 2-(2,6-dioxopiperidin-3-yl)-5-[1-(2-fluoro-1-phenylethyl)-4-hydroxypiperidin-4-yl]-2,3-dihydro-1H-isoindole-1,3-dione, formic acid salt]",31,76
"CC(c1ccccc1)N1CCC(O)(c2ccc3c(c2)C(=O)N(C2CCC(=O)NC2=O)C3=O)CC1 (stereo not drawn) [Compound 35, 2-(2,6-dioxopiperidin-3-yl)-5-[4-hydroxy-1-(1-phenylethyl)piperidin-4-yl]-2,3-dihydro-1H-isoindole-1,3-dione, HCl salt]",4,84
"N#Cc1cccc(CN2CCC(O)(c3ccc4c(c3)C(=O)N(C3CCC(=O)NC3=O)C4=O)CC2)c1 (stereo not drawn) [Compound 42, 3-({4-[2-(2,6-dioxopiperidin-3-yl)-1,3-dioxo-2,3-dihydro-1H-isoindol-5-yl]-4-hydroxypiperidin-1-yl}methyl)benzonitrile]",9,80
"N#Cc1ccc(CN2CCC(O)(c3ccc4c(c3)C(=O)N(C3CCC(=O)NC3=O)C4=O)CC2)cc1 (stereo not drawn) [Compound 57, 4-({4-[2-(2,6-dioxopiperidin-3-yl)-1,3-dioxo-2,3-dihydro-1H-isoindol-5-yl]-4-hydroxypiperidin-1-yl}methyl)benzonitrile]",6,81
"COCc1ccc(CN2CCC(O)(c3ccc4c(c3)C(=O)N(C3CCC(=O)NC3=O)C4=O)CC2)cc1 (stereo not drawn) [Compound 61, 2-(2,6-dioxopiperidin-3-yl)-5-(4-hydroxy-1-{[4-(methoxymethyl)phenyl]methyl}piperidin-4-yl)-2,3-dihydro-1H-isoindole-1,3-dione, HCl salt]",5,83
"O=C1CCC(N2C(=O)c3ccc(C4(O)CCN(Cc5ccccn5)CC4)cc3C2=O)C(=O)N1 (stereo not drawn) [Compound 68, 2-(2,6-dioxopiperidin-3-yl)-5-{4-hydroxy-1-[(pyridin-2-yl)methyl]piperidin-4-yl}-2,3-dihydro-1H-isoindole-1,3-dione, HCl salt]",21,71
"O=C1CCC(N2C(=O)c3ccc(C4(O)CCN(Cc5cccnc5)CC4)cc3C2=O)C(=O)N1 (stereo not drawn) [Compound 69, 2-(2,6-dioxopiperidin-3-yl)-5-{4-hydroxy-1-[(pyridin-3-yl)methyl]piperidin-4-yl}-2,3-dihydro-1H-isoindole-1,3-dione, formic acid salt]",39,72
"O=C1CCC(N2C(=O)c3ccc(C4(O)CCN(Cc5ccncc5)CC4)cc3C2=O)C(=O)N1 (stereo not drawn) [Compound 70, 2-(2,6-dioxopiperidin-3-yl)-5-{4-hydroxy-1-[(pyridin-4-yl)methyl]piperidin-4-yl}-2,3-dihydro-1H-isoindole-1,3-dione, HCl salt]",20,78
"COc1ccc(CN2CCC(O)(c3ccc4c(c3)C(=O)N(C3CCC(=O)NC3=O)C4=O)CC2)cn1 (stereo not drawn) [Compound 72, 2-(2,6-dioxopiperidin-3-yl)-5-{4-hydroxy-1-[(6-methoxypyridin-3-yl)methyl]piperidin-4-yl}-2,3-dihydro-1H-isoindole-1,3-dione, HCl salt]",1,80
"COC[C@H]1CC[C@H](CN2CCC(O)(c3ccc4c(c3)C(=O)N(C3CCC(=O)NC3=O)C4=O)CC2)CC1 (stereo partly drawn) [Compound 84, trans-2-(2,6-dioxopiperidin-3-yl)-5-(4-hydroxy-1-((4-(methoxymethyl)cyclohexyl)methyl)piperidin-4-yl)isoindoline-1,3-dione]",8.3,60
"COC[C@H]1CC[C@H](CN2CCC(c3ccc4c(c3)C(=O)N(C3CCC(=O)NC3=O)C4=O)CC2)CC1 (stereo partly drawn) [Compound 85, trans-2-(2,6-dioxopiperidin-3-yl)-5-(1-((4-(methoxymethyl)cyclohexyl)methyl)piperidin-4-yl)isoindoline-1,3-dione formic acid]",,25
"O=C1CCC(N2C(=O)c3ccc(C4(O)CCN(Cc5coc(-c6ccccc6)n5)CC4)cc3C2=O)C(=O)N1 (stereo not drawn) [Compound 91, 2-(2,6-dioxopiperidin-3-yl)-5-{4-hydroxy-1-[(2-phenyl-1,3-oxazol-4-yl)methyl]piperidin-4-yl}-2,3-dihydro-1H-isoindole-1,3-dione, HCl salt]",21,60
"O=C1CCC(N2C(=O)c3ccc(C4(O)CCN(Cc5ccn(-c6ccccc6)n5)CC4)cc3C2=O)C(=O)N1 (stereo not drawn) [Compound 94, 2-(2,6-dioxopiperidin-3-yl)-5-{4-hydroxy-1-[(1-phenyl-1H-pyrazol-3-yl)methyl]piperidin-4-yl}-2,3-dihydro-1H-isoindole-1,3-dione, HCl salt]",8,79
"O=C1CCC(N2C(=O)c3ccc(C4CCN(Cc5ccc6ncn(-c7ccccn7)c(=O)c6c5)CC4)cc3C2=O)C(=O)N1 (stereo not drawn) [Compound 97, 2-(2,6-dioxopiperidin-3-yl)-5-(1-((4-oxo-3-(pyridin-2-yl)-3,4-dihydroquinazolin-6-yl)methyl)piperidin-4-yl)isoindoline-1,3-dione]",,36
"O=C1CCC(N2C(=O)c3ccc(C4(O)CCN(Cc5ccc6ncn(-c7ccccn7)c(=O)c6c5)CC4)cc3C2=O)C(=O)N1 (stereo not drawn) [Compound 98, 2-(2,6-dioxopiperidin-3-yl)-5-(4-hydroxy-1-((4-oxo-3-(pyridin-2-yl)-3,4-dihydroquinazolin-6-yl)methyl)piperidin-4-yl)isoindoline-1,3-dione]",1.5,72
"O=C1CCC(N2C(=O)c3ccc(C4(O)CCN(Cc5ccc6ncn(-c7cccnc7)c(=O)c6c5)CC4)cc3C2=O)C(=O)N1 (stereo not drawn) [Compound 99, 2-(2,6-dioxopiperidin-3-yl)-5-(4-hydroxy-1-{[4-oxo-3-(pyridin-3-yl)-3,4-dihydroquinazolin-6-yl]methyl}piperidin-4-yl)-2,3-dihydro-1H-isoindole-1,3-dione, formic acid salt]",1,89
"O=C1CCC(N2C(=O)c3ccc(C4(O)CCN(Cc5ccccc5)CC4)c(F)c3C2=O)C(=O)N1 (stereo not drawn) [Compound 128, 5-(1-benzyl-4-hydroxypiperidin-4-yl)-2-(2,6-dioxopiperidin-3-yl)-4-fluoro-2,3-dihydro-1H-isoindole-1,3-dione, HCl salt]",2,81
"Cn1ncc2ccc(CN3CCC(O)(c4ccc5c(c4)C(=O)N(C4CCC(=O)NC4=O)C5=O)CC3)cc21 (stereo not drawn) [Compound 140, 2-(2,6-dioxopiperidin-3-yl)-5-{4-hydroxy-1-[(1-methyl-1H-indazol-6-yl)methyl]piperidin-4-yl}-2,3-dihydro-1H-isoindole-1,3-dione, formic acid salt]",3,87
"Cn1ccc2cc(CN3CCC(O)(c4ccc5c(c4)C(=O)N(C4CCC(=O)NC4=O)C5=O)CC3)ccc21 (stereo not drawn) [Compound 141, 2-(2,6-dioxopiperidin-3-yl)-5-{4-hydroxy-1-[(1-methyl-1H-indol-5-yl)methyl]piperidin-4-yl}-2,3-dihydro-1H-isoindole-1,3-dione, HCl salt]",11,86
"Cn1c(CN2CCC(O)(c3ccc4c(c3)C(=O)N(C3CCC(=O)NC3=O)C4=O)CC2)cc2ccccc21 (stereo not drawn) [Compound 142, 2-(2,6-dioxopiperidin-3-yl)-5-{4-hydroxy-1-[(1-methyl-1H-indol-2-yl)methyl]piperidin-4-yl}-2,3-dihydro-1H-isoindole-1,3-dione, formic acid salt]",13,82
"CC(c1ccc(C(F)(F)F)cc1)N1CCC(O)(c2ccc3c(c2)C(=O)N(C2CCC(=O)NC2=O)C3=O)CC1 (stereo not drawn) [Compound 143, 2-(2,6-dioxopiperidin-3-yl)-5-(4-hydroxy-1-{1-[4-(trifluoromethyl)phenyl]ethyl}piperidin-4-yl)-2,3-dihydro-1H-isoindole-1,3-dione, HCl salt]",6,84
"O=C1CCC(N2C(=O)c3ccc(C4(O)CCN(Cc5ccc6[nH]ccc6c5)CC4)cc3C2=O)C(=O)N1 (stereo not drawn) [Compound 144, 2-(2,6-dioxopiperidin-3-yl)-5-{4-hydroxy-1-[(1H-indol-5-yl)methyl]piperidin-4-yl}-2,3-dihydro-1H-isoindole-1,3-dione, formic acid salt]",16,88
"Cn1ncc2cc(CN3CCC(O)(c4ccc5c(c4)C(=O)N(C4CCC(=O)NC4=O)C5=O)CC3)ccc21 (stereo not drawn) [Compound 145, 2-(2,6-dioxopiperidin-3-yl)-5-{4-hydroxy-1-[(1-methyl-1H-indazol-5-yl)methyl]piperidin-4-yl}-2,3-dihydro-1H-isoindole-1,3-dione, formic acid salt]",4,83
"CCCN1CCC(O)(c2ccc3c(c2)C(=O)N(C2CCC(=O)NC2=O)C3=O)CC1 (stereo not drawn) [Compound 146, 2-(2,6-dioxopiperidin-3-yl)-5-(4-hydroxy-1-propylpiperidin-4-yl)-2,3-dihydro-1H-isoindole-1,3-dione, HCl salt]",43,69
"O=C1CCC(N2C(=O)c3ccc(C4(O)CCN(Cc5ccc(-c6nccs6)cc5)CC4)cc3C2=O)C(=O)N1 (stereo not drawn) [Compound 147, 2-(2,6-dioxopiperidin-3-yl)-5-(4-hydroxy-1-{[4-(1,3-thiazol-2-yl)phenyl]methyl}piperidin-4-yl)-2,3-dihydro-1H-isoindole-1,3-dione, HCl salt]",8,88
